Reference: patent US20170333509A1, “MAILLARD REACTION PRODUCT-DECOMPOSING AGENT” (ARKRAY, Inc., priority 2016, published 2017)

Key:
[1] = tested on: AGEs modified bovine serum albumin (AGE-BSA) cross-linked to collagen; assay: AGEs Cross-Link Breaking Effect Confirmatory Test 2 (AGE-BSA cross-linked to collagen-coated microplate, ELISA); format: biochemical; settings: cross-link breaking reaction at 37° C. for 18 hours
Protocol: The test was carried out according to the description in Sara Vasan et al. (Nature, 382, pp 275-278 (1996)).
300 μL/well of SuperBlock T20 (PBS) Blocking Buffer was added to a commercially available 96-well microplate precoated with collagen, which then was reacted at 37° C. for one hour. After the reaction, it was washed with 0.05% polyethylene (20) sorbitan monolaurate (Tween 20)/PBS(−), and then AGEs modified bovine serum albumin (AGE-BSA) was added to each well of the microplate, which then was subjected to a crosslinking reaction at 37° C. for four hours. After the reaction, it was washed with Tween 20/PBS(−). Thereafter, a plant extract was added to each well and thereby it was subjected to a cross-link breaking (cleaving) reaction at 37° C. for 18 hours. After that, it was washed with Tween 20/PBS(−) and a primary antibody (anti-albumin bovine serum rabbit-polyclonal) was added thereto, which then was reacted at room temperature for 30 minutes. […] As a reaction stop solution, 1N HCl was added thereto, and the absorbance at 450 nm (dominant wavelength)/630 nm (complementary wavelength) was measured with a microplate reader. The amount of AGE-BSA that remained was determined from a calibration curve in which the amount of AGE-BSA was varied. Furthermore, the AGE-BSA decomposition rate (Collagen cross-link decomposition rate) was determined using the following formula. […]

[2] = AGEs Cross-Link Breaking Effect Confirmatory Test 1 (benzoic acid from PPD by reverse-phase HPLC); format: biochemical; settings: plant extract (hot water, 80° C.) or 10 mmol/L PTB : 10 mmol/L PPD : 0.2 mol/L phosphate buffer pH 7.4 = 5:1:4, 37° C., eight hours, n=3
Protocol: The test was carried out according to the description in […] al. (Nature, 382, pp 275-278 (1996)). […] A plant extract, 10 mmol/L of PPD, and 0.2 mol/L of phosphate buffer solution (pH 7.4) were mixed together at a ratio of 5:1:4 and then were reacted at 37° C. for eight hours (n=3). After completion of the reaction, hydrochloric acid was added thereto to stop the reaction. […] The amount of benzoic acid contained in the reaction solution was determined by subtracting the amount of benzoic acid contained in the sample, which was measured separately. Since 1 mol of PPD produces 1 mol of benzoic acid, the cross-link breaking rate was calculated by the following formula. Cross-link breaking rate (%)={(A-B)/C}×100 A: The amount of benzoic acid contained in the reaction solution B: The amount of benzoic acid contained in the sample C: The amount of PPD provided for the reaction (the amount of the substrate) As a control, a test was carried out using 10 mmol/L of PTB instead of the plant extract.

Row | Compound | Collagen Cross-Link Decomposition Rate (%) (AGE-BSA decomposition rate) [1] | Amount of Remaining AGE-BSA ([1]; absorbance 450 nm/630 nm, calibration curve) [ng] | Cross-Link Breaking Rate (%) (Mean Value ± Standard Deviation) [2]
1 | O=C1O[C@H]2[C@@H]3OC(=O)c4cc(O)c(O)c(O)c4-c4c(O)c(O)c5oc(=O)c6c(c(O)c(O)c7oc(=O)c4c5c76)-c4c(cc(O)c(O)c4O)C(=O)OC[C@H]3OC(O)[C@@H]2OC(=O)c2cc(O)c(O)c(O)c2-c2c1cc(O)c(O)c2O (mixture of isomers) [Punicalagin, punicalagin] | 65.7 | 343.3 | –
2 | O=C(C[n+]1ccsc1)c1ccccc1.[Br-] [PTB, N-phenacylthiazolium bromide] | – | – | 20.47 ± 0.29
